# Reference: the supplement of paper PMC10307832
# Tests used:
# Experiment in all cases: relative viability (nuclei count vs DMSO), 5 days (fraction); higher = more cells survive
# [1] = compound: CN(c1ncccc1CNc1nc(Nc2ccc3c(c2)CC(=O)N3)ncc1C(F)(F)F)S(C)(=O)=O
# Method in brief: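 Nuclei counted with MetaXpress define viability as the ratio of treated to vehicle wells, given as a median across plates. The lung cancer cell lines were in 1536-well plates, pinned with five √10-spaced library-drug doses and imaged at 4× after 5 days and Hoechst staining. Plates passed with control CV below 25% and at least one doubling.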
# [2] = compound: CN(c1ncccc1CNc1nc(Nc2ccc3c(c2)CC(=O)N3)ncc1C(F)(F)F)S(C)(=O)=O + CC1(C)CCC(c2ccc(Cl)cc2)=C(CN2CCN(c3ccc(C(=O)NS(=O)(=O)c4ccc(N[C@H](CCN5CCOCC5)CSc5ccccc5)c(S(=O)(=O)C(F)(F)F)c4)cc3)CC2)C1 [Navitoclax] (partner 0.5 µM)
# Method in brief: (§1)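 The day after seeding in 1536-well plates, lung cancer cell lines were treated by pin tool with a single drug, or with a fixed anchor-drug dose together with five library-drug doses (not always all listed) in √10 steps. After 5 days, a combined fix-and-stain solution (final 0.05% Triton X-100, 1% formaldehyde, 1 ug/ml Hoechst) was added. Nuclei counted on 4× images gave relative viability as treated counts over vehicle counts, reported as the median of duplicate plates.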
# [3] = compound: CN(c1ncccc1CNc1nc(Nc2ccc3c(c2)CC(=O)N3)ncc1C(F)(F)F)S(C)(=O)=O + COc1cc2c(Oc3ccc(NC(=O)C4(C(=O)Nc5ccc(F)cc5)CC4)cc3F)ccnc2cc1OCCCN1CCOCC1 [Foretinib] (partner 0.25 µM)
# Method in brief: as §1
# [4] = compound: CN(c1ncccc1CNc1nc(Nc2ccc3c(c2)CC(=O)N3)ncc1C(F)(F)F)S(C)(=O)=O + CS(=O)(=O)CCNCc1ccc(-c2ccc3ncnc(Nc4ccc(OCc5cccc(F)c5)c(Cl)c4)c3c2)o1 [Lapatinib] (partner 2 µM)
# Method in brief: as §1
# [5] = compound: CN(c1ncccc1CNc1nc(Nc2ccc3c(c2)CC(=O)N3)ncc1C(F)(F)F)S(C)(=O)=O + CS(=O)(=O)N1CCN(Cc2cc3nc(-c4cccc5[nH]ncc45)nc(N4CCOCC4)c3s2)CC1 [Pictilisib] (partner 1 µM)
# Method in brief: as §1
# [6] = compound: CN(c1ncccc1CNc1nc(Nc2ccc3c(c2)CC(=O)N3)ncc1C(F)(F)F)S(C)(=O)=O + C[C@@H](Oc1cc(-c2cnn(C3CCNCC3)c2)cnc1N)c1c(Cl)ccc(F)c1Cl [Crizotinib] (partner 1 µM)
# Method in brief: as §1
# [7] = compound: CN(c1ncccc1CNc1nc(Nc2ccc3c(c2)CC(=O)N3)ncc1C(F)(F)F)S(C)(=O)=O + C[C@]1(O)C[C@@H](c2nc(-c3ccc4ccc(-c5ccccc5)nc4c3)c3c(N)nccn32)C1 [Linsitinib] (partner 1 µM)
# Method in brief: as §1
# [8] = compound: CN(c1ncccc1CNc1nc(Nc2ccc3c(c2)CC(=O)N3)ncc1C(F)(F)F)S(C)(=O)=O + Cc1nc(NC(=O)N2CCC[C@H]2C(N)=O)sc1-c1ccnc(C(C)(C)C(F)(F)F)c1 [Alpelisib] (partner 2 µM)
# Method in brief: as §1
# [9] = compound: CN(c1ncccc1CNc1nc(Nc2ccc3c(c2)CC(=O)N3)ncc1C(F)(F)F)S(C)(=O)=O + N=C(N)NC(=N)NCCc1ccccc1 [Phenformin] (partner 250 µM)
# Method in brief: as §1
# [10] = compound: CN(c1ncccc1CNc1nc(Nc2ccc3c(c2)CC(=O)N3)ncc1C(F)(F)F)S(C)(=O)=O + Nc1ncn([C@H]2C[C@H](O)[C@@H](CO)O2)c(=O)n1 [Decitabine] (partner 2 µM)
# Method in brief: as §1
# [11] = compound: CN(c1ncccc1CNc1nc(Nc2ccc3c(c2)CC(=O)N3)ncc1C(F)(F)F)S(C)(=O)=O + O=C(c1cc(Cc2n[nH]c(=O)c3ccccc23)ccc1F)N1CCN(C(=O)C2CC2)CC1 [Olaparib] (partner 8 µM)
# Method in brief: as §1
# [12] = compound: CN(c1ncccc1CNc1nc(Nc2ccc3c(c2)CC(=O)N3)ncc1C(F)(F)F)S(C)(=O)=O + CC(=O)Nc1cccc(-n2c(=O)n(C3CC3)c(=O)c3c(Nc4ccc(I)cc4F)n(C)c(=O)c(C)c32)c1 [Trametinib] (partner 0.02 µM)
# Method in brief: as §1
# [13] = compound: CN(c1ncccc1CNc1nc(Nc2ccc3c(c2)CC(=O)N3)ncc1C(F)(F)F)S(C)(=O)=O + CC(=O)c1c(C)c2cnc(Nc3ccc(N4CCNCC4)cn3)nc2n(C2CCCC2)c1=O [Palbociclib] (partner 0.5 µM)
# Method in brief: as §1
# [14] = compound: CN(c1ncccc1CNc1nc(Nc2ccc3c(c2)CC(=O)N3)ncc1C(F)(F)F)S(C)(=O)=O + CCNC(=O)c1noc(-c2cc(C(C)C)c(O)cc2O)c1-c1ccc(CN2CCOCC2)cc1 [Luminespib] (partner 0.01 µM)
# Method in brief: as §1
# [15] = compound: CN(c1ncccc1CNc1nc(Nc2ccc3c(c2)CC(=O)N3)ncc1C(F)(F)F)S(C)(=O)=O + COc1cccc2cc(-c3nc([C@H]4CC[C@H](C(=O)O)CC4)n4ncnc(N)c34)[nH]c12 [OSI-027] (partner 0.5 µM)
# Method in brief: as §1
# [16] = compound: CN(c1ncccc1CNc1nc(Nc2ccc3c(c2)CC(=O)N3)ncc1C(F)(F)F)S(C)(=O)=O + Cc1cc(Nc2cc(N3CCN(C)CC3)nc(Sc3ccc(NC(=O)C4CC4)cc3)n2)n[nH]1 [Tozasertib] (partner 0.1 µM)
# Method in brief: as §1
# [17] = compound: CN(c1ncccc1CNc1nc(Nc2ccc3c(c2)CC(=O)N3)ncc1C(F)(F)F)S(C)(=O)=O + Cc1nc(Nc2ncc(C(=O)Nc3c(C)cccc3Cl)s2)cc(N2CCN(CCO)CC2)n1 [Dasatinib] (partner 0.075 µM)
# Method in brief: as §1
# [18] = compound: CN(c1ncccc1CNc1nc(Nc2ccc3c(c2)CC(=O)N3)ncc1C(F)(F)F)S(C)(=O)=O + NC(=O)Nc1cc(-c2cccc(F)c2)sc1C(=O)N[C@H]1CCCNC1 [AZD7762] (partner 0.2 µM)
# Method in brief: as §1
# [19] = compound: CN(c1ncccc1CNc1nc(Nc2ccc3c(c2)CC(=O)N3)ncc1C(F)(F)F)S(C)(=O)=O + Nc1nc2[nH]cc(CCc3ccc(C(=O)N[C@@H](CCC(=O)O)C(=O)O)cc3)c2c(=O)[nH]1 [Pemetrexed] (partner 0.2 µM)
# Method in brief: as §1
# [20] = compound: CN(c1ncccc1CNc1nc(Nc2ccc3c(c2)CC(=O)N3)ncc1C(F)(F)F)S(C)(=O)=O + O=C(CCCCCCC(=O)Nc1ccccc1)NO [Vorinostat] (partner 1 µM)
# Method in brief: as §1
cell line,measurement,setting,value
A549,relative viability,[1]; 0.01 µM,1.04
same,relative viability,[1]; 0.03162 µM,1.17
same,relative viability,[1]; 0.1 µM,0.922
same,relative viability,[1]; 0.3162 µM,0.95
same,relative viability,[1]; 1 µM,0.95
same,relative viability,[2]; first compound 0.01 µM,1.19
same,relative viability,[2]; first compound 0.03162 µM,1.07
same,relative viability,[2]; first compound 0.1 µM,1.26
same,relative viability,[2]; first compound 0.3162 µM,1.13
same,relative viability,[2]; first compound 1 µM,1.1
same,relative viability,[3]; first compound 0.01 µM,0.995
same,relative viability,[3]; first compound 0.03162 µM,0.948
same,relative viability,[3]; first compound 0.1 µM,0.958
same,relative viability,[3]; first compound 0.3162 µM,0.945
same,relative viability,[3]; first compound 1 µM,0.933
same,relative viability,[4]; first compound 0.01 µM,1
same,relative viability,[4]; first compound 0.03162 µM,1.06
same,relative viability,[4]; first compound 0.1 µM,0.971
same,relative viability,[4]; first compound 0.3162 µM,0.928
same,relative viability,[4]; first compound 1 µM,0.915
same,relative viability,[5]; first compound 0.01 µM,0.474
same,relative viability,[5]; first compound 0.03162 µM,0.63
same,relative viability,[5]; first compound 0.1 µM,0.569
same,relative viability,[5]; first compound 0.3162 µM,0.452
same,relative viability,[5]; first compound 1 µM,0.409
same,relative viability,[6]; first compound 0.01 µM,0.762
same,relative viability,[6]; first compound 0.03162 µM,0.799
same,relative viability,[6]; first compound 0.1 µM,0.803
same,relative viability,[6]; first compound 0.3162 µM,0.797
same,relative viability,[6]; first compound 1 µM,0.526
same,relative viability,[7]; first compound 0.01 µM,0.526
same,relative viability,[7]; first compound 0.03162 µM,0.761
same,relative viability,[7]; first compound 0.1 µM,0.558
same,relative viability,[7]; first compound 0.3162 µM,0.606
same,relative viability,[7]; first compound 1 µM,0.694
same,relative viability,[8]; first compound 0.01 µM,0.754
same,relative viability,[8]; first compound 0.03162 µM,0.905
same,relative viability,[8]; first compound 0.1 µM,0.726
same,relative viability,[8]; first compound 0.3162 µM,0.906
same,relative viability,[8]; first compound 1 µM,0.712
same,relative viability,[9]; first compound 0.01 µM,0.189
same,relative viability,[9]; first compound 0.03162 µM,0.205
same,relative viability,[9]; first compound 0.1 µM,0.173
same,relative viability,[9]; first compound 0.3162 µM,0.133
same,relative viability,[9]; first compound 1 µM,0.152
same,relative viability,[10]; first compound 0.01 µM,0.271
same,relative viability,[10]; first compound 0.03162 µM,0.258
same,relative viability,[10]; first compound 0.1 µM,0.285
same,relative viability,[10]; first compound 0.3162 µM,0.257
same,relative viability,[10]; first compound 1 µM,0.257
same,relative viability,[11]; first compound 0.01 µM,0.29
same,relative viability,[11]; first compound 0.03162 µM,0.367
same,relative viability,[11]; first compound 0.1 µM,0.352
same,relative viability,[11]; first compound 0.3162 µM,0.464
same,relative viability,[11]; first compound 1 µM,0.373
NCI-H522,relative viability,[1]; 0.01 µM,0.916
same,relative viability,[1]; 0.03162 µM,0.918
same,relative viability,[1]; 0.1 µM,0.996
same,relative viability,[1]; 0.3162 µM,1
same,relative viability,[1]; 1 µM,1.02
same,relative viability,[12]; first compound 0.01 µM,0.73
same,relative viability,[12]; first compound 0.03162 µM,0.813
same,relative viability,[12]; first compound 0.1 µM,0.698
same,relative viability,[12]; first compound 0.3162 µM,0.812
same,relative viability,[12]; first compound 1 µM,0.705
same,relative viability,[13]; first compound 0.01 µM,1.06
same,relative viability,[13]; first compound 0.03162 µM,1.01
same,relative viability,[13]; first compound 0.1 µM,1.08
same,relative viability,[13]; first compound 0.3162 µM,1.15
same,relative viability,[13]; first compound 1 µM,0.752
same,relative viability,[14]; first compound 0.01 µM,1.17
same,relative viability,[14]; first compound 0.03162 µM,1.2
same,relative viability,[14]; first compound 0.1 µM,1.17
same,relative viability,[14]; first compound 0.3162 µM,1.14
same,relative viability,[14]; first compound 1 µM,1.15
same,relative viability,[15]; first compound 0.01 µM,0.717
same,relative viability,[15]; first compound 0.03162 µM,0.703
same,relative viability,[15]; first compound 0.1 µM,0.726
same,relative viability,[15]; first compound 0.3162 µM,0.742
same,relative viability,[15]; first compound 1 µM,0.798
same,relative viability,[16]; first compound 0.01 µM,0.542
same,relative viability,[16]; first compound 0.03162 µM,0.447
same,relative viability,[16]; first compound 0.1 µM,0.469
same,relative viability,[16]; first compound 0.3162 µM,0.511
same,relative viability,[16]; first compound 1 µM,0.61
same,relative viability,[17]; first compound 0.01 µM,0.889
same,relative viability,[17]; first compound 0.03162 µM,0.832
same,relative viability,[17]; first compound 0.1 µM,0.95
same,relative viability,[17]; first compound 0.3162 µM,0.725
same,relative viability,[17]; first compound 1 µM,0.979
same,relative viability,[9]; first compound 0.01 µM,0.664
same,relative viability,[9]; first compound 0.03162 µM,0.645
same,relative viability,[9]; first compound 0.1 µM,0.629
same,relative viability,[9]; first compound 0.3162 µM,0.819
same,relative viability,[9]; first compound 1 µM,0.696
same,relative viability,[18]; first compound 0.01 µM,0.798
same,relative viability,[18]; first compound 0.03162 µM,0.979
same,relative viability,[18]; first compound 0.1 µM,0.737
same,relative viability,[18]; first compound 0.3162 µM,0.87
same,relative viability,[18]; first compound 1 µM,0.764
same,relative viability,[19]; first compound 0.01 µM,1.21
same,relative viability,[19]; first compound 0.03162 µM,0.923
same,relative viability,[19]; first compound 0.1 µM,1.03
same,relative viability,[19]; first compound 0.3162 µM,0.899
same,relative viability,[19]; first compound 1 µM,1.06
same,relative viability,[10]; first compound 0.01 µM,0.553
same,relative viability,[10]; first compound 0.03162 µM,0.685
same,relative viability,[10]; first compound 0.1 µM,0.649
same,relative viability,[10]; first compound 0.3162 µM,0.644
same,relative viability,[10]; first compound 1 µM,0.637
same,relative viability,[20]; first compound 0.01 µM,0.906
same,relative viability,[20]; first compound 0.03162 µM,1.06
same,relative viability,[20]; first compound 0.1 µM,0.919
same,relative viability,[20]; first compound 0.3162 µM,0.973
same,relative viability,[20]; first compound 1 µM,0.961
same,relative viability,[11]; first compound 0.01 µM,0.55
same,relative viability,[11]; first compound 0.03162 µM,0.594
same,relative viability,[11]; first compound 0.1 µM,0.575
same,relative viability,[11]; first compound 0.3162 µM,0.693
same,relative viability,[11]; first compound 1 µM,0.763
